In patent US5681829A, “Class of phosphocholine derivatives having antifungal activity” (Shaman Pharmaceuticals, Inc., priority 1995, dated 1997):
Converted amounts (≈) assume the structure as drawn. Where two headings read alike, the source gives them in different places.

Assays:
Assay type in all cases: cell-based
fungi = assay: antifungal activity stated in words
C. albicans = assay: antifungal screening test of analogs, C. albicans (CA); conditions: for IC (25-75%): read-out: Partial inhibition
Experimental: (§1) The analog compounds were tested for their activity against C. albicans, C. neoformans, A. fumigatus and T. rubrum. Partial inhibition of the fungus of between 25 to 75% was measured along with the total inhibition (MIC) by these anolog compounds. A description of the partial inhibition measurement can be found in R. L. Stiller, et al The Journal of Infectious Diseases, 147, No. 6 (1983). The structure of these analog compounds is as follows. [drawing 15] wherein R is the group identified in table 2.

C. neoformans = assay: antifungal screening test of analogs, C. neoformans (CN); conditions: for IC (25-75%): read-out: Partial inhibition
Experimental: as §1

A. fumigatus = assay: antifungal screening test of analogs, A. fumigatus (AF); conditions: for IC (25-75%): read-out: Partial inhibition
Experimental: as §1

T. rubrum = assay: antifungal screening test of analogs, T. rubrum (TR); conditions: for IC (25-75%): read-out: Partial inhibition
Experimental: as §1

Compound | MIC (C. albicans; Candida albicans) [µg/mL] | MIC (C. neoformans; Cryptococcus neoformans) [µg/mL] | IC (25-75%) (C. neoformans; Cryptococcus neoformans) [µg/mL] | MIC (A. fumigatus; Aspergillus fumigatus) [µg/mL] | IC (25-75%) (A. fumigatus; Aspergillus fumigatus) [µg/mL] | MIC (T. rubrum; Trichophyton rubrum) [µg/mL] | IC (25-75%) (T. rubrum; Trichophyton rubrum) [µg/mL] | further results
C[N+](C)(C)CCOP(=O)([O-])OCCCCCCCCCCCCCCCCCCCCCCOP(=O)([O-])OCC[N+](C)(C)C [1,22-docosandiol bisphosphocholine ester] |  |  |  |  |  |  |  | antifungal activity (fungi): one of the most active antifungal compounds
CCCCCCCCCCCCCCCC(=O)O[C@H](COC1O[C@H](CO)[C@@H](O)[C@H](O)[C@H]1O)COP(=O)([O-])OCC[N+](C)(C)C (some centres unmarked) [2-palmitoyl-1-O-glucopyranosyllysolecithin] |  |  |  |  |  |  |  | antifungal activity (fungi): relatively active antifungal agent similar in activity to L-a-Lysophosphatidyl inositol
CCCCCCCCCC(=O)OC[C@@H](O)COP(=O)([O-])OCC[N+](C)(C)C [L-a-Lysophosphatidylcholine Decanoyl (C:10)] | > 500 | 500 (≈ 1220 µM) | 250 | > 500 | > 500 | > 500 | > 500 | IC (25-75%) (C. albicans; Candida albicans): 250 µg/mL
CCCCCCCCCCCCCCCCC(=O)OC[C@@H](O)COP(=O)([O-])OCC[N+](C)(C)C [L-a-Lysophosphatidylcholine Heptadecanoyl (C17:0)] |  |  |  |  |  |  |  | IC (25-75%) (C. albicans; Candida albicans, CA, partial inhibition of between 25 to 75%): 16 µg/mL; MIC (C. albicans; Candida albicans, CA, total inhibition, read-out: MIC): 63 µg/mL (≈ 124 µM); MIC (C. neoformans; Cryptococcus neoformans, CN, total inhibition, read-out: MIC): 16 µg/mL (≈ 31.4 µM); IC (25-75%) (A. fumigatus; Aspergillus fumigatus, AF, partial inhibition of between 25 to 75%): 31 µg/mL; MIC (A. fumigatus; Aspergillus fumigatus, AF, total inhibition, read-out: MIC): > 1000 µg/mL; IC (25-75%) (T. rubrum; Trichophyton rubrum, TR, partial inhibition of between 25 to 75%): 31 µg/mL; MIC (T. rubrum; Trichophyton rubrum, TR, total inhibition, read-out: MIC): 63 µg/mL (≈ 124 µM)
CCCCCCCCCCCC(=O)OC[C@@H](O)COP(=O)([O-])OCC[N+](C)(C)C [L-a-Lysophosphatidylcholine Lauroyl (C12:0)] | 500 (≈ 1140 µM) | 125 (≈ 284 µM) | 31 | 125 (≈ 284 µM) |  | 250 (≈ 569 µM) | 63 | 
CCCCCCCCCCCCCC(=O)OC[C@@H](O)COP(=O)([O-])OCC[N+](C)(C)C [L-a-Lysophosphatidylcholine Myristoyl (C14:0)] | 31 (≈ 66.3 µM) | 31 (≈ 66.3 µM) |  | 125 (≈ 267 µM) | 31 | 31 (≈ 66.3 µM) |  | 
CCCCCCCC/C=C\CCCCCCCC(=O)OC[C@@H](O)COP(=O)([O-])OCC[N+](C)(C)C [L-a-Lysophosphatidylcholine Oleoyl (C18:1,[Cis]-9)] | 31 (≈ 59.4 µM) | 31 (≈ 59.4 µM) |  | 63 (≈ 121 µM) | 31 | 31 (≈ 59.4 µM) |  | 
CCCCCCCCCCCCCCCC(=O)OC[C@@H](O)COP(=O)([O-])OCC[N+](C)(C)C [L-a-Lysophosphatidylcholine Palmitoyl (C16:0)] | 31 (≈ 62.5 µM) | 31 (≈ 62.5 µM) |  | 63 (≈ 127 µM) | 31 | 500 (≈ 1010 µM) | 63 | 
CCCCCCCCCCCCCCCCCC(=O)OC[C@@H](O)COP(=O)([O-])OCC[N+](C)(C)C [L-a-Lysophosphatidylcholine Stearoyl (C18:0)] | > 250 | > 250 | 31 | > 250 | > 250 | > 250 | > 250 | IC (25-75%) (C. albicans; Candida albicans): > 250 µg/mL
CCCCCCCC/C=C\CCCCCCCC(=O)OC[C@@H](O)COP(=O)(O)OCCN [L-a-Lysophosphatidylethanol Amine, Oleoyl (C18:1,[cis]-9)] | > 100 | > 100 | 100 | > 100 | > 100 | > 100 | > 100 | IC (25-75%) (C. albicans; Candida albicans): > 100 µg/mL
L-a-Lysophosphatidyl inositol |  |  |  |  |  |  |  | Partial inhibition (C. albicans; CA, partial inhibition of between 25 to 75%): > 100 µg/mL; MIC (C. albicans; CA, total inhibition): > 100 µg/mL; Partial inhibition (C. neoformans; CN, partial inhibition of between 25 to 75%): 100 µg/mL; MIC (C. neoformans; CN, total inhibition): > 100 µg/mL; MIC (A. fumigatus; AF, total inhibition): 100 µg/mL; Partial inhibition (T. rubrum; TR, partial inhibition of between 25 to 75%): > 100 µg/mL; MIC (T. rubrum; TR, total inhibition): > 100 µg/mL
